How the values were obtained:
Type in all cases: in vivo
corn rootworm = assay: Mite/insect screen, CRW; conditions: percent mortality, read-out: CRW RESULTS %; for mortality at 12 ppm: CRW rate 12.00 ppm; for mortality at 24 ppm: CRW rate 24.00 ppm
In short: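 Compounds dissolved in 50:50 acetone/alcohol with TOXIMUL R and S emulsifiers (23 and 13 g/L), then diluted in water to the stated test concentrations. Percent mortality of corn rootworm scored after standard exposure periods.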

[1] = system: Botrytis cinerea (gray mold); assay: Test 1 greenhouse foliar spray screen, gray mold on grape berries; conditions: disease control rating, spray on grape berries, 400 ppm (+++ at 100 ppm)
[2] = system: Septoria tritici (leaf blotch); assay: Test 1 greenhouse foliar spray screen, leaf blotch on wheat; conditions: disease control rating, foliar spray on wheat, 400 ppm (+++ at 100 ppm)
[3] = system: Twospotted spider mites (Tetranychus urticae Koch); assay: Mite/insect screen, SM; conditions: Tetranychus urticae, foliar, percent mortality, foliar spray on squash, read-out: SM RESULTS %; for mortality at 200 ppm: rate 200 ppm; for mortality at 400 ppm: rate 400 ppm
In short: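 Compounds dissolved in 50:50 acetone/alcohol containing sulfonate/nonionic emulsifier blends, then diluted with water to the indicated concentrations. Leaves sprayed on both surfaces to runoff at 10 psi and dried one hour. Percent mortality scored after standard exposure periods.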

[4] = system: melon aphids (Aphis gossypii Glover); assay: Mite/insect screen, MA; conditions: Aphis gossypii, foliar, percent mortality, foliar spray on squash, read-out: MA RESULTS %; for mortality at 200 ppm: rate 200 ppm; for mortality at 400 ppm: rate 400 ppm
In short: (§1)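 Compounds dissolved in acetone/alcohol (50:50) with TOXIMUL R and S emulsifiers, diluted in water to test concentrations, and sprayed to runoff on both leaf surfaces at 10 psi, then dried 1 h. For armyworm, excised treated leaves were offered to larvae; percent mortality scored after standard exposure periods.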

[5] = system: Pseudoperonospora cubensis (downy mildew); assay: Test 1 greenhouse foliar spray screen, downy mildew on squash; conditions: disease control rating, foliar spray on squash, 400 ppm (+++ at 100 ppm)
[6] = system: Pyricularia oryzae (rice blast); assay: whole plant or invertebrate; conditions: disease control rating, foliar spray on rice, 400 ppm (+++ at 100 ppm)
[7] = system: Puccinia recondita tritici (leaf rust); assay: Test 1 greenhouse foliar spray screen, leaf rust on wheat; conditions: disease control rating, foliar spray on wheat, 400 ppm (+++ at 100 ppm)
[8] = system: Venturia inaequalis (apple scab); assay: Test 1 greenhouse foliar spray screen, apple scab on apple seedling; conditions: disease control rating, foliar spray on apple seedling, 400 ppm (+++ at 100 ppm)
[9] = system: southern armyworm (Spodopetra eridania Cramer); assay: Mite/insect screen, SAW; conditions: Spodoptera eridania, foliar, percent mortality, foliar spray on squash, read-out: SAW RESULTS %; for mortality at 200 ppm: rate 200 ppm; for mortality at 400 ppm: rate 400 ppm
In short: as §1

[10] = system: Erysiphe graminis tritici (powdery mildew); assay: Test 1 greenhouse foliar spray screen, powdery mildew on wheat; conditions: disease control rating, foliar spray on wheat, 400 ppm (+++ at 100 ppm)
[11] = system: Cercospora beticola (leaf spot); assay: Test 1 greenhouse foliar spray screen, leaf spot on sugar beet; conditions: disease control rating, foliar spray on sugar beet, 400 ppm (+++ at 100 ppm)

SMILES | mortality at 12 ppm (corn rootworm) | GRAY MOLD [1] | LEAF BLOT [2] | mortality at 200 ppm [3] | mortality at 200 ppm [4] | DOWN MDEW [5] | RICE BLAST [6] | LEAF RUST [7] | APPL SCAB [8] | mortality at 200 ppm [9] | POWD MDEW [10] | LEAF SPOT [11] | mortality at 24 ppm (corn rootworm) | mortality at 400 ppm [3] | mortality at 400 ppm [4] | mortality at 400 ppm [9]
CC(Cc1cccs1)Nc1ccnc2ccccc12 (centres unmarked) [Example 171, N-[1-methyl-2-(2-thienyl)ethyl]-4-quinolinamine] | 0% | - (0-19% control at 400 ppm) | + (20-89% control at 400 ppm) | 0% | 0% | + (20-89% control at 400 ppm) | + (20-89% control at 400 ppm) | + (20-89% control at 400 ppm) | - (0-19% control at 400 ppm) | 0% | - (0-19% control at 400 ppm) | + (20-89% control at 400 ppm) | – | – | – | –
Clc1cccc2c(NCCc3cccs3)ccnc12 [Example 172, 8-chloro-N-[2-(2-thienyl)ethyl]-4-quinolinamine] | 0% | - (0-19% control at 400 ppm) | - (0-19% control at 400 ppm) | 0% | 0% | + (20-89% control at 400 ppm) | + (20-89% control at 400 ppm) | + (20-89% control at 400 ppm) | - (0-19% control at 400 ppm) | 0% | + (20-89% control at 400 ppm) | - (0-19% control at 400 ppm) | – | – | – | –
Fc1cccc2c(NCCC3COc4ccccc4O3)ccnc12 (centres unmarked) [Example 174, N-[2-(2,3-dihydro-1,4-benzodioxin-2-yl)ethyl]-8-fluoro-4-quinolinamine] | 0% | - (0-19% control at 400 ppm) | + (20-89% control at 400 ppm) | 0% | 0% | +++ (90-100% control at 100 ppm) | + (20-89% control at 400 ppm) | ++ (90-100% control at 400 ppm) | - (0-19% control at 400 ppm) | 0% | + (20-89% control at 400 ppm) | - (0-19% control at 400 ppm) | – | – | – | –
Fc1cccc2c(NCCc3ccsc3)ccnc12 [Example 175, 8-fluoro-N-[2-(3-thienyl)ethyl]-4-quinolinamine] | 0% | - (0-19% control at 400 ppm) | + (20-89% control at 400 ppm) | 0% | 0% | +++ (90-100% control at 100 ppm) | + (20-89% control at 400 ppm) | +++ (90-100% control at 100 ppm) | - (0-19% control at 400 ppm) | 0% | + (20-89% control at 400 ppm) | - (0-19% control at 400 ppm) | – | – | – | –
Fc1cccc2c(NCCc3c[nH]c4ccccc34)ccnc12 [Example 176, 8-fluoro-N-[2-(1H-indol-3-yl)ethyl]-4-quinolinamine] | 0% | - (0-19% control at 400 ppm) | - (0-19% control at 400 ppm) | 0% | 0% | ++ (90-100% control at 400 ppm) | + (20-89% control at 400 ppm) | + (20-89% control at 400 ppm) | - (0-19% control at 400 ppm) | 0% | + (20-89% control at 400 ppm) | + (20-89% control at 400 ppm) | – | – | – | –
CC(=O)N(CCC1=CCCCC1)c1ccnc2c(C)cc(C)cc12 [Example 179, N-[2-(1-cyclohexenyl)ethyl]-N-(6,8-dimethyl-4-quinolinyl)acetamide] | 0% | - (0-19% control at 400 ppm) | - (0-19% control at 400 ppm) | 0% | 0% | ++ (90-100% control at 400 ppm) | - (0-19% control at 400 ppm) | - (0-19% control at 400 ppm) | + (20-89% control at 400 ppm) | 0% | - (0-19% control at 400 ppm) | + (20-89% control at 400 ppm) | 0% | 0% | 0% | 0%
Fc1cccc2c(NCCc3ccccn3)ccnc12 [Example 180, 8-fluoro-N-[2-(2-pyridinyl)ethyl]-4-quinolinamine] | 0% | - (0-19% control at 400 ppm) | + (20-89% control at 400 ppm) | 0% | 0% | ++ (90-100% control at 400 ppm) | + (20-89% control at 400 ppm) | - (0-19% control at 400 ppm) | - (0-19% control at 400 ppm) | 0% | ++ (90-100% control at 400 ppm) | + (20-89% control at 400 ppm) | 0% | 0% | 0% | 0%
Fc1cccc2c(NCCc3ccccc3)cc(NCCc3ccccc3)nc12 [Example 183, 8-fluoro-N,N'-bis(2-phenylethyl)-2,4-quinolinediamine] | 0% | - (0-19% control at 400 ppm) | - (0-19% control at 400 ppm) | 0% | 0% | +++ (90-100% control at 100 ppm) | ++ (90-100% control at 400 ppm) | ++ (90-100% control at 400 ppm) | + (20-89% control at 400 ppm) | 0% | - (0-19% control at 400 ppm) | + (20-89% control at 400 ppm) | – | – | – | –
CC(CNc1cc(NCC(C)c2ccccc2)c2ccccc2n1)c1ccccc1 (centres unmarked) [Example 184, N,N'-bis(2-phenylpropyl)-2,4-quinolinediamine] | 0% | - (0-19% control at 400 ppm) | - (0-19% control at 400 ppm) | 0% | 0% | ++ (90-100% control at 400 ppm) | + (20-89% control at 400 ppm) | ++ (90-100% control at 400 ppm) | - (0-19% control at 400 ppm) | 0% | - (0-19% control at 400 ppm) | - (0-19% control at 400 ppm) | – | – | – | –

— patent publication EP0326331B1, “Substituted quinolines and cinnolines” (Dow AgroSciences LLC, priority 1988, dated 1989)
